{"source": "patent US8044098B2", "about": "“Use of hydroxybenzoic acids and their esters and analogues for preventing or treating virus infection” (Shenghua Guangzhou Pharmaceutical Science & Technology Co., …, priority 2005, dated 2011)", "key": {"[1]": {"system": "HPV 6/11", "test": "Drug screening by quantitative fluorescent PCR analysis of HPV 6/11 in condyloma acuminata homogenate", "parameters": "species or system human papillomavirus (HPV)"}, "[2]": {"system": "HPV 16/18", "test": "Drug screening by quantitative fluorescent PCR analysis of HPV 16/18 in condyloma acuminata homogenate", "parameters": "species or system human papillomavirus (HPV)"}, "[3]": {"system": "condyloma acuminata", "test": "Clinical use in treating condyloma acuminata", "format": "in vivo, human", "text": "Soft hyperplasia with nipple or cauliflower shaped or other shaped warts were found around the skin of the cunnus or anus. The result from 5% acetate acid white test was positive.\nPatients selected for the clinical observation must meet the above standards. Plus the diameter of their skin lesions should equal to or be less than 1 cm. […] Patients who had vaginal yeast, trichomonas, bacteria infection or other complications, chronic diseases, serious liver or kidney diseases or women in pregnancy or lactation were not selected. Treatments to women would not be conducted in their menstrual periods.\n50 qualified patients were selected and randomly divided into five groups to be tested with p-hydroxybenzoic acid, gallic acid, ethyl p-hydroxybenzoate, propyl gallate and recombinant human interferon α-2β gel, respectively. The samples of p-hydroxybenzoic acid, gallic acid, ethyl p-hydroxybenzoate and propyl gallate were prepared as described in Example 1. The patients were treated with the test sample to the affected areas three times a day, in the morning, at noon and night. The samples were applied to cover the warts and the patients were required to leave the treated areas exposed and not to move for 20 minutes.\nObservation time: 8 days. Patients not cured after 8 days would continue to use the test samples for another 12 weeks, and their prognosis was followed during the 12-week period.\nObserved items: the location, shape, size and number of warts were carefully observed and recorded before the treatment.\n“Recovered”: all skin lesions had disappeared;\n“Obvious Effect”: more than 70% of the skin lesions had disappeared;\n“Improved”: more than 30% of the skin lesions had disappeared;\n“Not Effective”: less than 30% of the skin lesions had disappeared or the original skin lesions didn't change or even enlarged."}, "[4]": {"system": "secretion of HBsAg by 2.2.15 cells", "test": "Inhibition of secretion of HBsAg by Hepatitis B 2.2.15 cell line", "format": "cell-based, HBV", "settings": "1 μmol/ml", "text": "Hepatitis B 2.2.15 cell line was transfected by HBV DNA (purchased from Institute of Biochemistry and Cell Biology of Shanghai Institute for Biological Sciences or the National Center for Drug Screening) and used as the cell model for screening anti-HBV drug compounds (See Chinese Journal Of Integrated Traditional and Western Medicine on Liver Diseases, 2004, 14(3): 158). The cell culture medium DMEM (GIBCO Company), bovine serum (Hangzhou Siji Qing Biochemical Manufacturer), G418 (GIBCO Company), 3-(4,5-dimethylthiazol-2-yl)-2,5-diphenyltetrazoliumbromide (Sigma), HBsAg and HBeAg diagnostic kit (Shanghai Kehua Bio-engineering Co., Ltd).\nThe test compounds listed in Table 3 below were dissolved in a mixture containing 20 ml 1,2-propylene glycol and 15 ml Tween-80 and diluted with sterile saline water to 2 μmol/ml of the test compound. Then it was mixed with the cell culture medium at equal volume to obtain a solution containing 1 μmol/ml of the tested compound. Cells at the concentration of 1×10^5 cells per milliliter were inoculated to a 24-well plate at 1 ml/well. Supernatant from the cell culture mixture was collected three days later for testing."}, "[5]": {"format": "physicochemical", "procedure": "20 ml 1,2-propylene glycol, 15 ml Tween-80 and 5 ml azone were mixed together and sterile distilled water was added to bring the volume to 100 ml. The pH value of the solution was adjusted to pH 6.8 with NaOH or HCl to obtain a micro emulsion. 10 g propyl gallate and 10 g gallic acid were dissolved in the micro emulsion, respectively, and mixed well. 10 ml of each micro emulsion was added to a capped transparent glass tube. Both solutions were colorless. The absorbance of the two solutions at 400˜500 nm was measured with spectrophotometry and their absorbance was under 0.15. […] Measured by spectrophotometry again, the absorbance of the gallic acid solution was 1.2 and that of the propyl gallate solution was 0.4."}, "[6]": {"system": "cervical erosion", "test": "Clinical use of propyl gallate in treating cervical erosion", "format": "in vivo, human", "settings": "for total effectiveness rate: recovered or improved", "procedure": "4 g propyl gallate was mixed with 40 ml 1,2-propylene glycol and heated to let the ingredients to dissolve. Sterile distilled water was added to the mixture to reach a final volume of 100 ml. 28 married female patients of 22-50 years old were selected for the test. […] The patients were also tested for the absence of vaginal yeast infection or trichomoniasis or sexually transmitted diseases. The patients were randomly divided into two groups of 14 patients each. One group was treated with propyl gallate micro emulsion, the other group with interferon-α suppository (made by Wuhan Tian'ao Pharmaceutical Co.). The treatment was started three days after a patient's last menstrual period. The propyl gallate micro emulsion was applied to the mucosa surfaces with cervical erosion every other day for 30 days. Out of the group treated with propyl gallate, 7 patients had the medicine applied to them by medical professionals at a hospital, the other 7 patients applied the medicine by themselves at home. On the other hand, an interferon-α suppository was used by each patient in the control group once a day before sleep for 30 days. “Recovered”: the cervical skin became smooth, cervical erosion had disappeared; […] The effectiveness of treatment was calculated based on the number of patients that were “recovered” or “improved”. Among patients of the propyl gallate group who were treated at the hospital, the “recovered” rate was about 81%, the “improved” rate was about 15%, and the total effectiveness rate was about 96%. Among patients of the propyl gallate group who were treated at home, the “recovered” rate was about 32%, the “improved” rate was about 55%, and the total effectiveness rate was about 87%. Among patients treated with interferon-α suppository, the “recovered” rate was about 22%, the “improved” rate was about 57%, and the total effectiveness rate was about 79%."}, "[7]": {"settings": "24 hours after adding the test compound"}, "[8]": {"settings": "patients treated at home (7), every other day for 30 days"}}}
{"compound": "CCCOC(=O)c1cc(O)c(O)c(O)c1", "note": "[Propyl gallate]", "values": [{"measurement": "HPV 6/11 Virus (copies/ml)", "setting": "[1]; 50 μl 10% micro emulsion + 50 μl HPV sample homogenate, 37° C., 24 hours, saline control 1.45 × 10^6", "value": 0, "unit": "copies/ml"}, {"measurement": "HPV 6/11 detected by FQ-PCR (in words)", "setting": "[1]; [7]", "value": "no HPV 6/11 or HPV 16/18 was detected"}, {"measurement": "HPV 16/18 Virus (copies/ml)", "setting": "[2]; 50 μl 10% micro emulsion + 50 μl HPV sample homogenate, 37° C., 24 hours, saline control 1.40 × 10^5", "value": 0, "unit": "copies/ml"}, {"measurement": "HPV 16/18 detected by FQ-PCR (in words)", "setting": "[2]; [7]", "value": "no HPV 6/11 or HPV 16/18 was detected"}, {"measurement": "treatment effect compared to recombinant human interferon α-2β gel", "setting": "[3]; condyloma acuminata patients, 10% micro emulsion", "value": "more apparent treatment effect"}, {"measurement": "Recovered, 1-4 days", "setting": "[3]; number of patients (50 patients in five groups), 10% micro emulsion on affected areas three times a day, all skin lesions disappeared", "value": 7}, {"measurement": "Recovered, 5-8 days", "setting": "[3]; number of patients, 10% micro emulsion three times a day, all skin lesions disappeared", "value": 1}, {"measurement": "Obvious Effect, 1-4 days", "setting": "[3]; number of patients, more than 70% of the skin lesions disappeared", "value": 2}, {"measurement": "effect on the secretion of HBsAg by the 2.2.15 cells (in words)", "setting": "[4]", "value": "had inhibition effect"}, {"measurement": "inhibition of HBsAg secretion compared with gallic acid and 3,4-dihydroxybenzoic acid", "setting": "[4]", "value": "more effective"}, {"measurement": "HBsAg Inhibition rate", "setting": "[4]; 2.2.15 cells, supernatant collected three days later", "value": 18.83, "unit": "%"}, {"measurement": "colour of solution, initial", "setting": "[5]; micro emulsion pH 6.8, freshly prepared", "value": "colorless"}, {"measurement": "absorbance after 30 days", "setting": "[5]; micro emulsion pH 6.8, kept at room temperature for 30 days, 400˜500 nm", "value": 0.4}, {"measurement": "colour of solution after 30 days", "setting": "[5]; micro emulsion pH 6.8, room temperature for 30 days", "value": "remained colorless"}, {"measurement": "“improved” rate", "setting": "[6]; [8]", "value": "about 55%"}, {"measurement": "“recovered” rate", "setting": "[6]; [8]", "value": "about 32%"}, {"measurement": "total effectiveness rate", "setting": "[6]; patients treated at home (7)", "value": "about 87%"}, {"measurement": "“recovered” rate", "setting": "[6]; patients treated at the hospital (7), 4% micro emulsion every other day for 30 days", "value": "about 81%"}, {"measurement": "“improved” rate", "setting": "[6]; patients treated at the hospital (7), every other day for 30 days", "value": "about 15%"}, {"measurement": "total effectiveness rate", "setting": "[6]; patients treated at the hospital (7)", "value": "about 96%"}, {"measurement": "effectiveness compared with interferon-α suppository", "setting": "[6]; patients treated at the hospital, P<0.05", "value": "significantly better"}]}
